{"source": "patent US20250120963A1", "about": "“METHODS AND COMPOSITIONS FOR THE TREATMENT OF THROMBOCYTOPENIA” (THE CHILDREN'S MEDICAL CENTER CORPORATION, priority 2023, published 2025)", "key": {"[1]": {"system": "PARylation in megakaryocytes", "assay": "PARylation western blot in megakaryocytes subjected to hydrogen peroxide with or without Olaparib", "type": "cell-based, murine", "settings": "10 mM H2O2; Olaparib 30 μM or 3 μM", "method": "(§1) Lineage depleted murine bone marrow was cultured with TPO for 4 days. Gradient-isolated megakaryocytes subjected to 10 mM of hydrogen peroxide (H2O2) in the presence or absence of Olaparib (30 μM or 3 μM). Cells were subsequently lysed in RIPA buffer containing protease inhibitor cocktail. A western blot to detect PARylation was performed. Equal loading was confirmed using an anti-GAPDH antibody. Impage shown is a representative of three experiments.\nas §1, with “megakaryocytes were” for “megakaryocytes”, “olaparib” for “Olaparib”, “performed (FIG. 18).” for “performed.”, “antibody.” for “antibody. Impage shown is a representative of three experiments.”"}, "[2]": {"system": "mice", "settings": "50 mg/kg daily i.p.; Niraparib 10 days, Olaparib 3 days", "method": "Mice were treated with 50 mg/kg Niraparib or Olaparib daily (i.p.) for 10 or 3 days, respectively, and platelet counts measured by SYSMEX™.\nFIG. 21A) Platelet count versus time. FIG. 21B) RBC count versus time. FIG. 21C) WBC count versus time.\n8,9 Mice were treated with 50 mg/kg of Niraparib and Olaparib […]."}, "[3]": {"system": "lineage depleted murine bone marrow", "assay": "In vitro megakaryocyte differentiation: lineage depleted bone marrow cultured with TPO for 4 days with PARPi (VWF-GFP signal)", "type": "cell-based", "settings": "for megakaryocyte differentiation / megakaryopoiesis in vitro: TPO, 4 days, PARPi vs vehicle", "method": "Lineage depleted bone marrow was cultured with TPO for 4 days in the presence of PARPi or vehicle controls. FIG. 14A) representative images of VWF-GFP signal. FIG. 14B) Mean normalized area of GFP signal (n=3). Error bars±SEM.Circles=Olaparib, squares=Niraparib, triangles=Rucaparib.\nLineage depleted bone marrow was cultured with TPO for 4 days in the presence of PARPi or vehicle controls (FIG. 14A-14B).\nLineage depleted murine bone marrow was cultured with TPO for 4 days in the presence of PARPi or vehicle controls (FIG. 14A-14B)."}, "[4]": {"system": "C57B1/6 mice", "assay": "Olaparib 50 mg/kg i.p. 5 consecutive days each week in C57B1/6 mice, 2-week and 4-week experiments", "type": "in vivo", "method": "C57B1/6 mice dosed with 50 mg/kg Olaparib intraperitoneally for 5 days consecutive days each week. Dark gray=vehicle, light gray=Olaparib.\nOlaparib treatment increases platelet count and alters megakaryocyte ploidy in mice. C57B1/6 mice were dosed with 50 mg/kg Olaparib intraperitoneally for 5 days consecutive days each week."}, "[5]": {"system": "platelets", "settings": "platelets drawn on D11, 25 mg/kg; stimulated with ADP, TRAP or CRP; listed as niraparib", "method": "Platelets were drawn from mice at sacrifice on D11 (see FIG. 6), stimulated with agonists as indicated, and the MFI of activated αIIbβ3 measured by flow cytometry. Black markers=saline, gray markers=Niraparib, 25 mg/kg.\nPlatelets were drawn from mice at sacrifice on D11, stimulated with agonists as indicated, and the MFI of activated αIIbβ3 measured by flow cytometry. Black=saline, gray=Niraparib (25 mg/kg).\n(§2) While MK ploidy is not directly causative of platelet production, higher ploidy MKs are associated with increased platelet production and ploidy status is indicative of more terminal MK maturation. To look further at live MKs, 2-photon intravital microscopy (2PIVM) was performed in the calvaria of vWF-GFP reporter mice (MKs and platelets are GFP+) treated with 25 mg/kg Niraparib or vehicle control DMSO for 7 days. Mice were anesthetized and a window in the calvaria was made to view the exposed bone marrow.\nPlatelets were drawn from mice at sacrifice on D11, stimulated with agonists as indicated, and the MFI of activated αIIbβ3 measured by flow cytometry."}, "[6]": {"settings": "0.03 μM vs vehicle"}, "[7]": {"system": "MKs in calvaria bone marrow of vWF-GFP reporter mice", "settings": "25 mg/kg, 7 days, vs DMSO", "method": "as §2"}, "[8]": {"system": "mice", "method": "Mice were given Niraparib (25 mg/kg, intraperitoneal) or vehicle control for 11 days. FIG. 5A) Platelet counts and immature platelet fraction were measured on a SYSMEX™ hematology analyzer. Line graph: Black circles=Vehicle, gray squares=Niraparib. Bar charts: black=Vehicle, gray=Niraparib. FIG. 5B) MKs and MK-biased HSC counts. Dark gray=DMSO (vehicle), light gray=Niraparib. FIG. 5C) expression of γH2AX. Left bar=control, right bar=Niraparib, and FIG. 5D) MK ploidy was determined by flow cytometry (see FIGS. 9A-9C). n=4-5 mice per group. Gray=Niraparib, black=Vehicle.\nMice were treated with a subtherapeutic dosage of the PARP inhibitor Niraparib (25 mg/kg, intraperitoneal) or saline control for 11 days. The dosing schedule was as follows: 5 consecutive days of Niraparib treatment followed by 2 days of drug holiday (no injection), then 4 more consecutive days of Niraparib treatment. Mice were sacrificed on day 11. Platelet counts were taken on days 0 (pre-treatment), 2, 7, 9, and 11. Cohorts of mice were sacrificed on days 3 and 11 for quantification of bone MK and progenitor populations. […] To.\nNiraparib treatment were measured."}, "[9]": {"system": "patients", "settings": "ITP patients; cited from earlier work"}}, "data": [{"compound": "O=C(c1cc(Cc2n[nH]c(=O)c3ccccc23)ccc1F)N1CCN(C(=O)C2CC2)CC1", "note": "[Olaparib, 4-[(3-[(4-cyclopropylcarbonyl)piperazin-4-yl]carbonyl)-4-fluorophenyl]methyl (2H) phthalazin-1-one]", "values": [{"measurement": "megakaryocyte PARylation", "setting": "[1]", "value": "reverses PARylation pattern"}, {"measurement": "platelet counts at 50 mg/kg", "setting": "[2]", "value": "severe thrombocytopenia"}, {"measurement": "megakaryocyte differentiation / megakaryopoiesis in vitro", "setting": "[3]", "value": "reduce megakaryocyte differentiation"}, {"measurement": "platelet counts after day 6", "setting": "[4]; 2-week and 4-week experiments", "value": "returned to approximately baseline"}, {"measurement": "megakaryocyte ploidy shift after 2-weeks", "setting": "[4]; 2 weeks", "value": "fewer 8N and more 32N cells"}, {"measurement": "number of megakaryocytes (CD41+CD42+ flow cytometry of bone marrow) at 2-weeks", "setting": "[4]; 2 weeks", "value": "trend to fewer megakaryocytes"}, {"measurement": "megakaryocyte ploidy shift after 4-weeks", "setting": "[4]; 4 weeks", "value": "more 8N and fewer 16N cells"}, {"measurement": "number of megakaryocytes (CD41+CD42+ flow cytometry of bone marrow) at 4-weeks", "setting": "[4]; 4 weeks", "value": "trend to fewer megakaryocytes"}, {"measurement": "platelet count", "setting": "[4]; increase found at day 6, 2-week and 4-week experiments", "value": "surprising increase in platelet count"}]}, {"compound": "NC(=O)c1cccc2cn(-c3ccc([C@@H]4CCCNC4)cc3)nc12", "note": "[Niraparib, 2-{4-[(3S)-Piperidin-3-yl]phenyl}-2H-indazole-7-carboxamide]", "values": [{"measurement": "platelet function / activation", "setting": "[5]", "value": "does not affect platelet function"}, {"measurement": "megakaryocyte differentiation / megakaryopoiesis in vitro", "setting": "[3]", "value": "reduce megakaryocyte differentiation"}, {"measurement": "megakaryocyte maturation in vitro at higher doses", "setting": "[3]; lineage depleted bone marrow cells from WT mice, higher doses", "value": "decreased maturation"}, {"measurement": "megakaryocyte maturation in vitro at lower doses", "setting": "[3]; lineage depleted bone marrow cells from WT mice, lower doses", "value": "increased megakaryocyte maturation"}, {"measurement": "ploidy in vitro", "setting": "[6]", "value": "increases ploidy"}, {"measurement": "MK number in bone marrow by 2-photon intravital microscopy", "setting": "[7]", "value": "increased MK number"}, {"measurement": "number of MK-committed HSCs positive for γH2AX", "setting": "[8]; 25 mg/kg i.p.", "value": "significantly increased"}, {"measurement": "γH2AX-positive MKPs", "setting": "[8]; 25 mg/kg i.p.", "value": "trend to more"}, {"measurement": "2N MKs", "setting": "[8]; 25 mg/kg i.p., 11 days", "value": "almost no 2N MKs"}, {"measurement": "number of 32N MKs", "setting": "[8]; 25 mg/kg i.p., 11 days", "value": "large increase"}, {"measurement": "MK number / MK counts", "setting": "[8]; 25 mg/kg i.p., bone marrow, flow cytometry, listed as niraparib", "value": "increases"}, {"measurement": "MK-committed HSCs (CD41+LT-HSCs) counts", "setting": "[8]; 25 mg/kg i.p., days preceding the increase in platelet counts", "value": "significant increase"}, {"measurement": "immature platelet fraction", "setting": "[8]; 25 mg/kg i.p., from day 7, vs saline", "value": "significant increase"}, {"measurement": "platelets, percent of normal levels", "setting": "[8]; Niraparib treated mice", "value": "> 150 % of normal levels"}, {"measurement": "MKs in day 3 HSPC/myeloid panel", "setting": "[8]; day 3, committed progenitors and classical hematopoiesis pathways", "value": "Significant increase in MKs"}, {"measurement": "day 11 HSPC/myeloid panel: HSC status", "setting": "[8]; day 11", "value": "HSC exhaustion"}, {"measurement": "megakaryopoiesis", "setting": "[8]; lower doses of niraparib", "value": "increase in megakaryopoiesis"}, {"measurement": "time to significant increase in mouse platelet count", "setting": "[8]; lower doses of niraparib, from initial administration", "value": "≤ 7", "unit": "days"}, {"measurement": "DNA damage accumulation in megakaryocytes, γH2AX immunofluorescence on long bones", "setting": "[8]; niraparib group", "value": "Increased DNA damage accumulation"}]}, {"compound": "Rituximab: treatment for ITP patients, which can take 4-6 weeks for peak results", "values": [{"measurement": "time for peak results", "setting": "[9]", "value": "4-6 weeks"}]}]}
